Results on 4 substances are retold here after patent publication US7851436B2, “Inhibition of migration and induction of cell death by the type II collagen amino propeptides” (Washington University, priority 2007, dated 2010).

Experiment [1] deals with HUVEC cells. Nature of the experiment: HUVEC cell death. Type of experiment: cell-based, human. The following applies: 60 hrs, 37° C.; higher concentrations. Here is the method:
FIG. 6 depicts photographs and graphs showing that PIIBNP inhibits angiogenesis. […] Quantification of tube formation was calculated based on branch points per field of view (FIG. 6C) for each treatment ranging from 0.1 μM to 10 μM of PIIBNP. […] GST (▴) and PIIANP (●) had no effect on the cells.
As a second test for angiogenesis, we tested the ability of PIIBNP to inhibit outgrowth of endogenous endothelial cells from freshly isolated rat aorta. […] In order to determine whether PIIBNP caused endothelial cell death, the number of HUVEC cells present after incubation with PIIBNP was determined (FIGS. 6E and 8). Tube formation was inhibited by 50% with 0.1 μM PIIBNP, with no cell death. […] Consequently, PIIBNP can inhibit angiogenesis in a cell line and in endogenous endothelial cells mediated by integrins αVβ3 and αVβ5.

For experiment [2], the system named is Ch-1 cells. Nature of the experiment: Detection of cell death in Ch-1 cells. Type of experiment: cell-based, human. The following applies: 0.8 μM, serum free medium, 24 hrs; type I collagen, fibronectin or Matrigel coated plates. Here is the method:
Cell Culture. Human Chondrosarcoma cell line (Ch-1) was isolated from a portion of chondrosarcoma tumor. The Ch-1 cell line was maintained in RPMI-1640 supplemented with 10% FBS and at 37° C. in a humidified, 5% CO2 atmosphere. Human chondrocytes were obtained from Dr. Davis Adkisson (ISTO Technologies, St. Louis) or isolated from macroscopically intact tissue obtained from total joint arthroplasty as described (Bassleer et al., 1998). HeLa 229 cells and MDA-MB 231 cell lines were provided by Dr. Kathy Weilbaecher (Washington University) and were cultured in RPMI medium supplemented with 10% FBS. HUVEC cells were a gift from Dr. William Frazier (Washington University) and were cultured in M199 Earle's medium with 10 units/ml of penicillin, 5 μg/ml streptomycin and 0.25 μg/ml Fungizone supplemented with 10% FBS, 0.1 mg/ml L-glutamine, 25 mM Hepes, 16 units/ml of heparin (Sigma) and 0.1 mg/ml endothelial cell mitogen (Biochemical Technologies).
Detection of Cell Death. Cells were cultured to confluence in a 24-well plate pre-coated with type I collagen, fibronectin (Sigma), and ECM Matrigel (Becton Dickinson). Proteins in serum-free medium were added to the cells. Cells were monitored by light microscopy and images were digitally photographed using a Q capture Retiga 2000R camera. Quantification of cells remaining in the well was performed by washing with PBS for three times, fixing with 4% paraformaldehyde. The cells per field (×400) were counted for three field per well (3 wells per measurement). The mean number and standard deviation (SD) were calculated.

Experiment [3] has as its target T1, αVβ3 integrin (Homo sapiens, UniProt P05106+P06756).
T1 construct: Ch-1 membrane proteins were labeled with biotin, and PIIBNP was used to isolate the integrin molecules; endogenous in cells; host or cells: Ch-1 human chondrosarcoma cells (surface-biotinylated, lysed)
Put plainly: Cell surface labeling and GST pull-down with immunoblotting. Type of experiment: binding. The following applies: biotin-labeled Ch-1 membrane proteins, Western blot. Here is the method:
(§1) Immunoblotting. Western blotting was performed as described (7). Blots were probed with the following primary antibodies: rabbit anti αV, α2, α3, α5, β1, β3, β5 integrin and goat anti actin (Saint Cruz), chicken anti PIIBNP antiserum, and mouse anti exon 2 antiserum.
(§2) Cell Surface labeling and GST Pull-down Assay. Ch-1 cells were incubated with EZ-link Sulfo-NHS-Biotin reagent for 30 mins. according to the product instruction (Sigma). After 3 washes with 0.1 M glycine in PBS, the cells were lysed with a lysis buffer described above. The lysate was incubated with glutathione derivatized agarose beads previously bound with GST, PIIANP, PIIBNP or mPIIBNP for 1 hr. at RT. […] The membrane was washed and incubated with antibodies and then incubated with a secondary antibody coupled to horseradish peroxidase. The antibody complex was visualized by enhanced chemiluminescence.
On the technique in general: In western blotting, separated proteins are transferred to a membrane and probed.

The target in experiment [4] is T2, αVβ5 integrin (Homo sapiens, UniProt P06756+P18084).
T2 construct: Ch-1 membrane proteins were labeled with biotin, and PIIBNP was used to isolate the integrin molecules; endogenous in cells; host or cells: Ch-1 human chondrosarcoma cells (surface-biotinylated, lysed)
T2 sequence (P06756 31-889 limits assumed): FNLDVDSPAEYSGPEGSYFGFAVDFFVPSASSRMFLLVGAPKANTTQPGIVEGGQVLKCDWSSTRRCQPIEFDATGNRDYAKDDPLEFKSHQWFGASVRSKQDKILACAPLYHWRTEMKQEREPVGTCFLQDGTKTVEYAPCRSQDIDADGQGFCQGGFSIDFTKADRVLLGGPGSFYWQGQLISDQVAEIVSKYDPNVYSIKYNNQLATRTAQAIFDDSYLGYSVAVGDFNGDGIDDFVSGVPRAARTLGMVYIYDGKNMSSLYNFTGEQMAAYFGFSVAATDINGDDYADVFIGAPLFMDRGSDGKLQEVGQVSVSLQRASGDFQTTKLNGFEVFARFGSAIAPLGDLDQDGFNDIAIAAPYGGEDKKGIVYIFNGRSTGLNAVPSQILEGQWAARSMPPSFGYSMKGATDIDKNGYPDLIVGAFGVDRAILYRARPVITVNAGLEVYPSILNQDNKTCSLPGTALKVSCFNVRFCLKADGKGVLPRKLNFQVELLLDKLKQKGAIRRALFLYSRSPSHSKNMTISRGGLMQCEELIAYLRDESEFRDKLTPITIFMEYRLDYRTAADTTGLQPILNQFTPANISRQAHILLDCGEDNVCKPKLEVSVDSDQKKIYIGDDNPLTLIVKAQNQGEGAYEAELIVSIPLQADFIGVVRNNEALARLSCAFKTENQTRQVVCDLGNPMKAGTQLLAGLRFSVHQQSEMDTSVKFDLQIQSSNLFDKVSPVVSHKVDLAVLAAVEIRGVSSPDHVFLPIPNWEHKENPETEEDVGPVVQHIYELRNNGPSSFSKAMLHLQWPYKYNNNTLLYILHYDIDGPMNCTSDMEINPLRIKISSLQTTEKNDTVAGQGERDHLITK
T2 sequence (P06756 891-1048 limits assumed): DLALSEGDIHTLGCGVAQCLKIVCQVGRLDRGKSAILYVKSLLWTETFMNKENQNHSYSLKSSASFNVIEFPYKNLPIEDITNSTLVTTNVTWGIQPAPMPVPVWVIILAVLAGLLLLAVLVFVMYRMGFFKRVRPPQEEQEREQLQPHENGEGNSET
T2 sequence (P18084 24-799): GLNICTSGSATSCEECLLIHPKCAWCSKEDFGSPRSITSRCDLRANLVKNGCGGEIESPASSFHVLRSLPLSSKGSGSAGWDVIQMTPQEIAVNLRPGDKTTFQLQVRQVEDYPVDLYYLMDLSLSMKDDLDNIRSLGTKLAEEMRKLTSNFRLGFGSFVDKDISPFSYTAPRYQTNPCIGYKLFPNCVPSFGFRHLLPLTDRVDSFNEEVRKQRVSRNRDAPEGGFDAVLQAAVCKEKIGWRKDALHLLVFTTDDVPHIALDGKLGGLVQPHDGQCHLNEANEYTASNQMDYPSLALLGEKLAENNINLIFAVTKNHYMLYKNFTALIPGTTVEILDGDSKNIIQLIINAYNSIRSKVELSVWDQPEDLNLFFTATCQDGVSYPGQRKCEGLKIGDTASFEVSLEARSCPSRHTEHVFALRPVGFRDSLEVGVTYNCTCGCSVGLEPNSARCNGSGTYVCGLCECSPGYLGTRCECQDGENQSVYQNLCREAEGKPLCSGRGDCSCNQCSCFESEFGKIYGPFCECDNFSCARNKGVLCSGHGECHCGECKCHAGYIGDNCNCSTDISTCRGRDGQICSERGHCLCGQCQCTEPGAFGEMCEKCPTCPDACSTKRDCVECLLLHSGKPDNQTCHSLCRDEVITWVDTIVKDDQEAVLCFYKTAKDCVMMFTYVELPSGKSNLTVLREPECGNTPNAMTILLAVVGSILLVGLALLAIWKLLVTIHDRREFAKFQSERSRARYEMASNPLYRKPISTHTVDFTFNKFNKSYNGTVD
The experiment is described as above. Type of experiment: binding. The following applies: biotin-labeled Ch-1 membrane proteins, Western blot. The protocol: as §1, §2

For experiment [5], the system named is Ch-1 cell adhesion to PIIBNP. Nature of the experiment: Inhibition of Ch-1 cell adhesion to PIIBNP by synthetic blocking peptides and integrin antibodies. The class given is cell-based, human. The protocol:
(§3) Cell Adhesion Assay. Cell adhesion assays were performed using a spectrometric method. A 96-well plate was coated at 4° C. overnight with recombinant proteins. Wells were washed three times with RPMI-1640 medium containing 10% FBS. Ch-1 cells were harvested with limited trypsin digestion and plated at 5×10^4 cells per well in RPMI-1640 medium supplemented with 10% FBS for an hours. Proteins were added and incubation continued for 1 hour. The wells were washed three times with pre-warmed PBS to remove non-adherent cells. The adherent cells were fixed with 4% paraformaldehyde in PBS for 10 minutes at room temperature and stained with 0.5% toluidine blue for 5 minutes. The wells were rinsed with water and cells were solubilized with 0.1% SDS. Absorbance at 595 nm was recorded on a SpectraMax plate reader. Synthetic blocking peptides and antibodies to αVβ3 and αVβ5 integrin were pre-incubated with cells for 15 to 30 mins before they were added onto the wells in the inhibition assays.
Antibodies. Monoclonal antibodies used for blocking experiments were: mouse anti αVβ3 and αVβ5 integrins (Chemicon). Polyclonal antibodies for immunohistochemistry and western blotting were rabbit anti human αV, α2, α3, α5, β1, β3, β5 integrin, goat anti human actin (Santa Cruz), mouse anti exon 2, rabbit anti GSTexon 2, and chicken anti PIIBNP (antiserum made in our lab).

Experiment [6] has as its system Ch-1 cells. Nature of the experiment: Cell adhesion assay (Ch-1 cells on wells coated with recombinant proteins). Type of experiment: cell-based, human. The following applies: wells coated with recombinant protein. Here is the method:
as §3
Cell Culture. Human Chondrosarcoma cell line (Ch-1) was isolated from a portion of chondrosarcoma tumor (Chansky et al., J Orthop Res. (1998) 16(5):521-30). The Ch-1 cell line was maintained in RPMI-1640 supplemented with 10% FBS and at 37° C. in a humidified, 5% CO2 atmosphere.

T1 sequence (P06756 31-889 limits assumed): as the sequence (P06756 31-889 limits assumed) above
T1 sequence (P06756 891-1048 limits assumed): as the sequence (P06756 891-1048 limits assumed) above
T1 sequence (P05106 27-788): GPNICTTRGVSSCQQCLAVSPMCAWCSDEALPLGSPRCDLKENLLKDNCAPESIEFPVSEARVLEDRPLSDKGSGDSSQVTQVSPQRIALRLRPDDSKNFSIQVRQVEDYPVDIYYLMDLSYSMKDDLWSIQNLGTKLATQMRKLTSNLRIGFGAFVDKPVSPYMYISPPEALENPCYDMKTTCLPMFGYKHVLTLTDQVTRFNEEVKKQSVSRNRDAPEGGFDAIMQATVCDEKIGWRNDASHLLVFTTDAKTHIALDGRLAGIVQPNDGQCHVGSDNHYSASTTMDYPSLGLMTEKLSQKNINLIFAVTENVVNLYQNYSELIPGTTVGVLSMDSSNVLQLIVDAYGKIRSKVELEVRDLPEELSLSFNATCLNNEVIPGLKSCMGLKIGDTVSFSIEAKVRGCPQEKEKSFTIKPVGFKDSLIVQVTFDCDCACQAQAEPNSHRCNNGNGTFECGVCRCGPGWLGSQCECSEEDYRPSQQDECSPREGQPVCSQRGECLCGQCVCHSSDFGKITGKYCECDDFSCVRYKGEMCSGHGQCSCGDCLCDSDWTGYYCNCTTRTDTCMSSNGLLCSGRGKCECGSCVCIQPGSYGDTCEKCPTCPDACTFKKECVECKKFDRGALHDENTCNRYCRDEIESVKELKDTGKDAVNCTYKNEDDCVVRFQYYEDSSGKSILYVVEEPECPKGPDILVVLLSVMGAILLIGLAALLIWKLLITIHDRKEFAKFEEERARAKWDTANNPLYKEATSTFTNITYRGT

As for “GST: Recombinant GST alone, control protein for the GST fusion proteins [reference compound]”, in experiment [1], the HUVEC cell death result is listed as “no effect”. Besides, the “induction of cell death in Ch-1 cells” value in experiment [2] is given as “did not induce cell death”. Moreover, in experiment [3], the “binding to integrin αVβ3” value was “does not”. In addition, in experiment [4], the “binding to integrin αVβ5” value is recorded as “does not”.

As to GRADNP (listed as Homo sapiens), the inhibition of adhesion in experiment [5] (at 60 μM) was roughly 50%.

For “PIIBNPn: PIIBNP obtained by cleavage of GST from a GST-PIIBNP fusion protein with thrombin beads”, the “adhesion to Ch-1 cells” value in experiment [6] is “strong binding”.

In experiment [5] (at 10 μM), GRGDNP (listed as Homo sapiens) gave an inhibition of adhesion of 50%. Also, the “compete and inhibit adhesion” value in experiment [5] (synthetic peptides pre-incubated with cells) is “compete and inhibit adhesion”.
